Measured values published in patent US20230295109A1, “PYRIDINONE COMPOUNDS FOR THE TREATMENT OF AUTOIMMUNE DISEASE” (F. Hoffmann-La Roche AG, priority 2020, published 2023).

Key:
TLR9 = biological target: T1, TLR9 (Homo sapiens, UniProt Q9NR96); assay: Human PBMC cell-based assay, TLR9 (CpG ODN 2216); set-up: These cells express TLR7, TLR8, or TLR9, and therefore are natural responders to respective ligand stimulation; endogenous in cells; host or cells: primary human PBMC from healthy donor whole blood; conditions: CpG ODN 2216 at 1 µM, overnight, cytokine levels, read-out: hPBMC/TLR9 IC50
T1 sequence (Q9NR96 26-1032): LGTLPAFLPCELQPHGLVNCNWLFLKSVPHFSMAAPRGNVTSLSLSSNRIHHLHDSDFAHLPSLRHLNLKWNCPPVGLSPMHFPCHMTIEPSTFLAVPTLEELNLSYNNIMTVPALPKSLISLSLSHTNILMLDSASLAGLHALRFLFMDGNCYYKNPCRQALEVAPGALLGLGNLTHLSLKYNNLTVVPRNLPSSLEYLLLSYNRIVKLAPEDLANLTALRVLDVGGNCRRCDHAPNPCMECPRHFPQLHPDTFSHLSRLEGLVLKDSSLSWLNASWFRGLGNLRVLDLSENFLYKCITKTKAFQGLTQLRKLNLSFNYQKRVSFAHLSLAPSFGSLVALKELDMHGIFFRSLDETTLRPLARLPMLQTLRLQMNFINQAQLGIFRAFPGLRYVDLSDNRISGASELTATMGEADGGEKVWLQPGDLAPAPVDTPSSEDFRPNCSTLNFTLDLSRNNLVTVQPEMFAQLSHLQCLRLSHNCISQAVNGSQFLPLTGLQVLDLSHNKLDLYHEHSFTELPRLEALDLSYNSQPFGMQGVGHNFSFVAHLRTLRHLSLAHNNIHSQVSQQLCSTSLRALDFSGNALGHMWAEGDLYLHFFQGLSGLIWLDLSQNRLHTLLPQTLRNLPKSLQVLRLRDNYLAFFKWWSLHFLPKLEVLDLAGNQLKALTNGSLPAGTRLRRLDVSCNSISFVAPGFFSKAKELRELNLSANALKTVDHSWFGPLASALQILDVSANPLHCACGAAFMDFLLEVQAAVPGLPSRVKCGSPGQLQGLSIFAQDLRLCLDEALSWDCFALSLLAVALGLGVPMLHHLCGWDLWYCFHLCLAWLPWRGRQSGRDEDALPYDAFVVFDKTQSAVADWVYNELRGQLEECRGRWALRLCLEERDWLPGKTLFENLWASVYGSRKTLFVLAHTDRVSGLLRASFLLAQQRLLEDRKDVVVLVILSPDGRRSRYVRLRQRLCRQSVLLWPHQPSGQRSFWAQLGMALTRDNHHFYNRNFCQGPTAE
From the text: (§1) Unlike the HEK reporter cell lines, human peripheral blood mononuclear cell (PBMC) represents primary human immune cells in blood mainly consisting of lymphocytes, monocytes, and dendritic cells. These cells express TLR7, TLR8, or TLR9, and therefore are natural responders to respective ligand stimulation. Upon activation of these TLRs, PBMCs secrete similar cytokines and chemokines in vitro and in vivo, and therefore the in vitro potency of a TLR7/8/9 antagonist in human PBMC is readily translatable to its pharmacodynamics response in vivo.
(§2) Human peripheral blood mononuclear cells (PBMC) were isolated from freshly-drawn lithium-heparinized (Lithium Heparin Plus blood Collection tube, BD Vacutainer®) healthy donor whole blood by density gradient (Ficoll-PaqueTM PLUS, GE Healthcare life Sciences). Briefly, […] was diluted with 25 mL PBS (without Ca^2+, Mg^2+) in a 50 mL conical tube with porous barrier (Leucosep tube, Greiner bio-one), where 15.5 mL Ficoll-Paque was under laid after spinning. Tubes were centrifuged for 20 minutes at 800×g (1946 rpm) with the brake in the off position, and PBMC were collected from the buffy coat. Cells were then washed twice in PBS, and red blood cells were lysed by suspension in 2 mL (Red Blood Cell Lysis Buffer, Alfa Aesar) for 5-10 minutes at room temperature. After a final wash in PBS, PBMC were resuspended at a final concentration of 2×10^6 cells/mL in RPMI-1640 media with GlutaMAXTM (Gibco) supplemented with 10% Fetal Bovine Serum (Sigma) and plated at 150µL/well (3×10^5 cells/well) in tissue culture treated round bottom 96-well plates (Corning Incorporated). Antagonist compounds (compounds of this invention) solubilized and serial diluted in 100% DMSO were added in duplicate to cells to yield a final concentration of 1% DMSO (v/v). PBMC were incubated with antagonist compounds for 30 minutes at 37° C., 5% CO2 before adding various TLR agonist reagents in 48 µL complete media per well as follows (final concentrations indicated): CpG ODN 2216 (InvivoGen) at 1 µM for TLR9, ORN 06/LyoVec (InvivoGen) at 1 µg/mL for TLR8 and R848 (InvivoGen) at 1 µg/mL for TLR7 and TLR8. PBMC were incubated overnight at 37° C. with 5% CO2. Cell culture supernatants were collected, and levels of various human cytokines were assessed by Luminex assay (ProcartaPlexTM Multiplex Immunoassay, Invitrogen) or ELISA procedure according to the manufacturer’s recommended protocol (eBioscience, ThermoFisher Scientific). Viability of the cells was also checked with Cell Viability Assay (CellTiter Glo®Luminescent Cell Viability Assay, Promega).

[1] = Human microsome stability assay; assay type: in vitro ADME; conditions: 1 µM test compound, 0.5 mg/mL liver microsomal protein, 37° C., pH 7.4
Procedure: The human microsomal stability assay is used for early assessment of metabolic stability of a test compound in human liver microsomes.
Human liver microsomes (Cat.NO.: 452117, Corning, USA;Cat.NO.:H2610, Xenotech, USA) were preincubated with test compound for 10 minutes at 37° C. in 100 mM potassium phosphate buffer, pH 7.4. The reactions were initiated by adding NADPH regenerating system. The final incubation mixtures contained 1 µM test compound, 0.5 mg/mL liver microsomal protein, 1 mM MgCl2, 1 mM NADP, 1 unit/mL isocitric dehydrogenase and 6 mM isocitric acid in 100 mM potassium phosphate buffer, pH 7.4. After incubation times of 0, 3, 6, 9, 15 and 30 minutes at 37° C., 300 µL of cold acetonitrile (including internal standard) was added to 100 µL incubation mixture to terminate the reaction. Following precipitation and centrifugation, the amount of compound remaining in the samples were determined by LC-MS/MS. Controls of no NADPH regenerating system at zero and 30 minutes were also prepared and analyzed.

TLR7 and TLR8 = assay: Human PBMC cell-based assay, TLR7 and TLR8 (R848); conditions: R848 at 1 µg/mL, overnight, cytokine levels, read-out: hPBMC/TLR78 IC50
From the text: as §1, §2

SMILES	IC50 (TLR9) [nM]	Clearance of Human microsome [1] [mL/min/kg]	IC50 (TLR7 and TLR8) [nM]
CCc1nc(N2CCN(Cc3cnc(N4CC5(CNCCO5)C4)nc3)CC2)ccc1-c1cc(C)c(=O)n(C)c1 [Example 1, 5-[2-ethyl-6-[4-[[2-(5-oxa-2,8-diazaspiro[3.5]nonan-2-yl)pyrimidin-5-yl]methyl]piperazin-1-yl]-3-pyridyl]-1,3-dimethyl-pyridin-2-one]	388	6.5	–
CCc1nc(N2CCN(Cc3ccc(N4CC5(CNCCO5)C4)nc3)CC2)ccc1-c1cc(C)c(=O)n(C)c1 [Example 2, 5-[2-ethyl-6-[4-[[6-(5-oxa-2,8-diazaspiro[3.5]nonan-2-yl)-3 pyridyl]methyl]piperazin-1-yl]-3-pyridyl]-1,3-dimethyl-pyridin-2-one]	362	12.0	7
CCc1nc(N2CCN(Cc3cnc(N4CC(C)(N)C4)nc3)CC2)ccc1-c1cc(C)c(=O)n(C)c1 [Example 3, 5-[6-[4-[[2-(3-amino-3-methyl-azetidin-1-yl)pyrimidin-5-yl]methyl]piperazin-1-yl]-2-ethyl-3-pyridyl]-1,3-dimethyl-pyridin-2-one]	377	6.1	21
Cc1cc(-c2ccc(N3CCN(Cc4cnc(N5CC6(CNCCO6)C5)nc4)CC3)nc2C(C)C)cn(C)c1=O [Example 6, 5-[2-isopropyl-6-[4-[[2-(5-oxa-2,8-diazaspiro[3.5]nonan-2-yl)pyrimidin-5-yl]methyl]piperazin-1-yl]-3-pyridyl]-1,3-dimethyl-pyridin-2-one]	730	–	–
Cc1cc(-c2ccc(N3CCN(Cc4ccc(N5CCNCC5)cn4)CC3)nc2C(C)C)cn(C)c1=O [Example 7, 5-[2-isopropyl-6-[4-[(5-piperazin-1-yl-2-pyridyl)methyl]piperazin-1-yl]-3-pyridyl]-1,3-dimethyl-pyridin-2-one]	101	7.4	–
Cc1cc(-c2ccc(N3CCN(Cc4cnc(N5CCNCC5)cn4)CC3)nc2C(C)C)cn(C)c1=O [Example 8, 5-[2-isopropyl-6-[4-[(5-piperazin-1-ylpyrazin-2-yl)methyl]piperazin-1-yl]-3-pyridyl]-1,3-dimethyl-pyridin-2-one]	–	8.3	–
Cc1cc(-c2ccc(N3CCN(Cc4cnc(N5CCNCC5)nc4)CC3)nc2C(C)C)cn(C)c1=O [Example 9, 5-[2-isopropyl-6-[4-[(2-piperazin-1-ylpyrimidin-5-yl)methyl]piperazin-1-yl]-3-pyridyl]-1,3-dimethyl-pyridin-2-one]	47	7.8	0.4
Cc1cc(-c2ccc(N3CCN(Cc4ncc(N5CCNCC5)cn4)CC3)nc2C(C)C)cn(C)c1=O [Example 12, 5-[2-isopropyl-6-[4-[(5-piperazin-1-ylpyrimidin-2-yl)methyl]piperazin-1-yl]-3-pyridyl]-1,3-dimethyl-pyridin-2-one]	115	8.8	12
Cc1cc(-c2ccc(N3CCN(Cc4cccc(N5CCNCC5)c4)CC3)nc2C(C)C)cn(C)c1=O [Example 14, 5-[2-isopropyl-6-[4-[(3-piperazin-1-ylphenyl)methyl]piperazin-1-yl]-3-pyridyl]-1,3-dimethyl-pyridin-2-one]	–	8.3	–
Cc1cc(-c2ccc(N3CCN(c4ccc5c(n4)CCNC5)CC3)nc2C(C)C)cn(C)c1=O [Example 15, 5-[2-isopropyl-6-[4-(5,6,7,8-tetrahydro-1,6-naphthyridin-2-yl)piperazin-1-yl]-3-pyridyl]-1,3-dimethyl-pyridin-2-one]	–	8.7	–
Cc1cc(-c2ccc(N3CCN4CCN(c5ccc(N6CCNCC6)nc5)CC4C3)nc2C(C)C)cn(C)c1=O (stereo not shown) [Example 16, 5-[2-isopropyl-6-[8-(6-piperazin-1-yl-3-pyridyl)-3,4,6,7,9,9a-hexahydro-1H-pyrazino[1,2-a]pyrazin-2-yl]-3-pyridyl]-1,3-dimethyl-pyridin-2-one]	263	–	2
Cc1cc(-c2ccc(N3CCN(Cc4ccc(N5CCNCC5)cc4)CC3)nc2C(F)F)cn(C)c1=O [Example 17, 5-[2-(difluoromethyl)-6-[4-[(4-piperazin-1-ylphenyl)methyl]piperazin-1-yl]-3-pyridyl]-1,3-dimethyl-pyridin-2-one]	–	8.5	–
Cc1cc(-c2ccc(N3CCC(N4CCNCC4)CC3)nc2C(C)C)cn(C)c1=O [Example 18, 5-[2-isopropyl-6-(4-piperazin-1-yl-1-piperidyl)-3-pyridyl]-1,3-dimethyl-pyridin-2-one]	700	7.5	–
